Experimental data published in patent EP2067489B1, “Glyco-molecular imaging method for grade classification of liver fibrosis and its glyco-molecular imaging agent thereof” (Institute of Nuclear Energy Research Atomic Energy Council, priority 2007, dated 2009).

Experiment: Storage stability at room temperature
Type: physicochemical
Settings: stability to air and water-deliquescence

With O=C(O)CN(CCN1CC(=O)OC(=O)C1)CCN1CC(=O)OC(=O)C1 [DTPA anhydride] the “storage time in room temperature” value was “much unstable and easy to water-deliquescent”.
